# Measured values from patent publication US7282518B2, “Benzimidazole compounds for modulating IgE and inhibiting cellular proliferation” (Avanir Pharmaceuticals, priority 2001, dated 2007).
# Columns and labels:
# Splenic B cells = test: Spleen cell / splenic B cell proliferation, 3H-thymidine incorporation; assay type: cell-based, mouse
# Protocol: (§1) Spleen cell cultures were established from naive BALB/c mice and incubated for 4 days in the presence of stimulus and drug. Cultures were pulsed for 4 hours with 3H-thymidine and harvested. A variety of experiments were performed in an effort to determine the effect of the benzimidazole compounds on cellular proliferation. These experiments ultimately measured ^3H-thymidine incorporation into proliferating cell DNA. The specific procedure varied with the cells and the stimuli. Cells derived from mouse spleen were cultured at 3 million per ml; cell lines were seeded at 0.1 to 1 million per ml. Splenic B cells were isolated by T cell depletion and stimulated with phorbol myristate acetate (PMA) (10 ng/ml) plus ionomycin (100 nM), or IL-4 (10 ng/ml) plus anti-CD40 Ab (100 ng/ml). T cells were depleted prior to culture by incubating spleen cells first with a cocktail of anti-Thyl ascites (10%), anti-CD4 Ab (0.5 μg/ml) and anti-CD8 Ab (0.5 μg/ml), followed by guinea pig complement (adsorbed). Cell lines were unstimulated or stimulated with Human Epidermal Growth Factor (EGF) (100 ng/ml). All cells were cultured in 96-well plates for 2–3 days and pulsed for 6 to 14 hours with 50 μl of 3H-thymidine (50 μCi/ml).
# IgE responses = test: In vitro IgE responses to IL-4/anti-CD40 Ab; assay type: cell-based
# cytokine release = test: ConA-stimulated cytokine release; assay type: cell-based
# [1] = system: murine M12.4.1 lymphoma cells; test: M12.4.1 lymphoma cell proliferation, 3H-thymidine incorporation; assay type: cell-based
# Protocol: as §1, with “A” for “Spleen cell cultures were established from naive BALB/c mice and incubated for 4 days in the presence of stimulus and drug. Cultures were pulsed for 4 hours with 3H-thymidine and harvested. A”, “μCi/ml). In tumor cells, the results with splenic lymphocytes led to a further analysis of cellular proliferation by measuring the growth of tumor cells in the presence of these drugs. The initial analysis was performed with murine M12.4.1 lymphoma cells, either un-stimulated or stimulated with IL-4/anti-CD40 Ab. […]” for “μCi/ml).”
# [2] = system: tumor lines derived from a variety of tissues; test: Proliferation of a battery of tumor lines from a variety of tissues; assay type: cell-based, mostly human; conditions: in vitro
# Protocol: as §1, with “A” for “Spleen cell cultures were established from naive BALB/c mice and incubated for 4 days in the presence of stimulus and drug. Cultures were pulsed for 4 hours with 3H-thymidine and harvested. A”, “μCi/ml). A similar approach was used to establish selectivity of the anti-proliferative activity by testing a battery of tumor lines derived from a variety of tissues, mostly human in origin. An attempt was made to generate proliferation data from at least 2 cell lines from each tissue selected. […]” for “μCi/ml).”
# [3] = system: EGF-responsive cell lines; test: Proliferation of EGF-responsive (ER-negative/EGFR-positive) breast cancer cell lines; assay type: cell-based; conditions: in vitro
# Protocol: as §1, with “A” for “Spleen cell cultures were established from naive BALB/c mice and incubated for 4 days in the presence of stimulus and drug. Cultures were pulsed for 4 hours with 3H-thymidine and harvested. A”, “μCi/ml). A similar approach was used to establish selectivity of the anti-proliferative activity by testing a battery of tumor lines derived from a variety of tissues, mostly human in origin. An attempt was made to generate proliferation data from at least 2 cell lines from each tissue selected. […]” for “μCi/ml).”
# ER-positive cell lines = test: Proliferation of ER-positive breast cancer cell lines; assay type: cell-based; conditions: in vitro
# Protocol: as §1, with “A” for “Spleen cell cultures were established from naive BALB/c mice and incubated for 4 days in the presence of stimulus and drug. Cultures were pulsed for 4 hours with 3H-thymidine and harvested. A”, “μCi/ml). A similar approach was used to establish selectivity of the anti-proliferative activity by testing a battery of tumor lines derived from a variety of tissues, mostly human in origin. An attempt was made to generate proliferation data from at least 2 cell lines from each tissue selected. […]” for “μCi/ml).”
smiles,measurement,setting,value
O=C(Nc1ccccn1)c1ccc2[nH]c(-c3ccc(NC(=O)C45C[C@H]6C[C@@H](C4)C[C@@H](C5)C6)cc3)nc2c1 [Compound I.82],anti-proliferative activity to T and B lymphocytes exposed to a variety of immunogenic stimuli,Splenic B cells; in vitro,highly potent
same,spleen cell proliferation responses (FIG. 1),"Splenic B cells; naive BALB/c mice, 4 days with stimulus and drug, 4 hours 3H-thymidine pulse",suppression of spleen cell proliferation responses
same,B cell proliferation response to IL-4/anti-CD40 Ab,"Splenic B cells; spleen cells, IL-4 (10 ng/ml) plus anti-CD40 Ab (100 ng/ml)",suppressed
same,B cell proliferation response to PMA/ionomycin,"Splenic B cells; spleen cells, PMA (10 ng/ml) plus ionomycin (100 nM)",suppressed
same,in vitro IgE responses to IL-4/anti-CD40 Ab,IgE responses,suppressed in vitro IgE responses
same,ConA-stimulated cytokine release,cytokine release,inhibition
same,"proliferation of M12.4.1 cells, potency",[1]; cultured with IL-4/anti-CD40 Ab,increased
same,proliferation of M12.4.1 cells,[1]; un-stimulated,suppressed the proliferation of M12.4.1 cells but with lower potency
same,sensitivity of tumor cell lines (proliferation),[2],a number of tumor cell lines are sensitive
same,proliferation of all EGF-responsive cell lines,[3],potently inhibited
same,number of ER-positive cell lines potently inhibited,ER-positive cell lines,2 of the 5
